Data taken from patent US4410544A, “Platinum-diamine complexes, a method for the preparation of a medicine using such a platinum-diamine complex for the treatment of malignant tumor in mice” (priority 1978, dated 1983).

Assays:
[1] = tested on: L-1210 lymphoid leukemia (LE); test: Anti-cancerous activity in mice, L-1210 lymphoid leukemia (LE); format: in vivo, mouse
Text: (§1) An extensive research program carried out by the National Cancer Institute, Bethesda, Md., and the European Organization for Research on the Treatment of Cancer, Brussels, Belgium, has shown that when compared to PDD, compounds according to this invention, particularly compounds having the following formulas display a high therapeutic activity against a great number of different mammalian types of tumor, such as P 388 lymphocytic leukemia (PS), L-1210 lymphoid leukemia (LE), ependymoblastoma (EM), B 16 melanocarcinoma (B1) and a line of L-1210 leukemia resistant to cis-PDD (LE/cis-PDD): [drawing 9]
(§2) More detailed information concerning the testing procedure and their interpretation are contained in Instruction 14, Screening Data Summary, Interpretation and Outline of Current Screen, Drug Evaluation Branch, National Cancer Institute, Bethesda, Md., 20014 (1977) which is incorporated herein by reference.
(§3) *Period of survival is the ratio of survival times of the treated mice (T
(§4) to untreated mice (C); the therapeutic activity is significant at T/C
(§5) ≥ 125. The figures include dying mice only. A cure is defined as a
(§6) mouse free of tumors 45 days after injection, as determined by visual
(§7) **For Formula 12-cis PDD the mice were injected with 10^6 L1210
(§8) ascites cells. One I.P. injection of the test compound was given to each

[2] = tested on: L-1210 leukemia resistant to cis-PDD (LE/cis-PDD); test: Anti-cancerous activity in mice, L-1210 leukemia resistant to cis-PDD (LE/cis-PDD); format: in vivo, mouse; conditions: for T/C (period of survival, treated/untreated) / cures (mice free of tumors 45 days after injection): LE/cis PDD, BDF1 mice; for T/C (period of survival, treated/untreated): one I.P. injection; for effectiveness against the cis-PDD resistant line of L-1210 versus the parent line: mice; for cures (mice free of tumors 45 days after injection): of six mice
Text: as §1, §2, §3, §4, §5, §6, §7, §8

[3] = tested on: P 388 lymphocytic leukemia (PS); test: Anti-cancerous activity in mice, P 388 lymphocytic leukemia (PS); format: in vivo, mouse; conditions: CD2 F1 mice
Text: as §1, §2, §3, §4, §5, §6

ependymoblastoma (EM) = test: Anti-cancerous activity in mice, ependymoblastoma (EM); format: in vivo, mouse
Text: as §1, §2, §3, §4, §5, §6

[4] = tested on: B 16 melanocarcinoma (B1); test: Anti-cancerous activity in mice, B 16 melanocarcinoma (B1); format: in vivo, mouse; conditions: B16, B6 D2 (BDF) mice
Text: as §1, §2, §3, §4, §5, §6

[5] = Lethal doses LD10 / LD50 given with the BUN test in the rat
[6] = Urea-nitrogen in the blood after administering platinum complexes (in the rat); format: in vivo
Description: Percentage of urea-nitrogen in the blood after
administering platinum complexes (in the rat).
Both at doses corresponding with the LD10 -amount and at those corresponding with the LD50 -amount the urea-nitrogen contents in the blood are identical to the control values. BUN values≥30 mg% are generally considered indicative of drug-induced nephrotoxicity. […] In was found by means of a histological examination of rats after treatment with toxic doses of compounds of this invention, that these compounds display little or no kidney toxicity.

mammalian types of tumor = test: Therapeutic activity against mammalian tumors (NCI / EORTC program); format: in vivo, mouse; conditions: mice; Table A experiments
Text: as §1, §2

cancer = conditions: literature, cited from earlier work
[7] = literature; cited from earlier work
[8] = literature; cited from earlier work; remark: listed apart in the source
[9] = BDF1 mice, 50.00 mg/kg, one I.P. injection, 10^6 L1210 ascites cells
[10] = CD2 F1 mice, 12.50 mg/kg per injection
[11] = 6.25 mg/kg per injection, significant at T/C ≥ 125

Compound: CC(C)C(CN)(CN)C(C)C.[Cl-].[Cl-].[Pt+2] [Formula 14, Cis-dichloro-2,2-diisopropyl-1,3-propane diamine platinum(II)]
- T/C (period of survival, treated/untreated) [1, 9]: 178%

Compound: CCC(C)(CN)CN.[Cl][Pt][Cl] [Formula 8, Cis-dichloro-(2-methyl-2-ethyl)-1,3-propane diamine platinum (II)]
- T/C (period of survival, treated/untreated) [1, 10]: 289%

Compound: NCC1(CN)CCCCC1.O=C([O-])CC(=O)[O-].[Pt+2] [Formula 18, Cis-1,1-di(aminomethyl)-cyclohexanemalonato platinum(II)]
- cures (mice free of tumors 45 days after injection) ([1]; BDF1 mice, 64.00 mg/kg, of six mice): 1/6
- T/C (period of survival, treated/untreated) ([1]; BDF1 mice, 64.00 mg/kg, one I.P. injection, dying mice only): 200%
- T/C (period of survival, treated/untreated) ([2]; 16.00 mg/kg): 230%
- effectiveness against the cis-PDD resistant line of L-1210 versus the parent line [2]: even more effective against the cis-PDD resistant line of L-1210 than they are against the parent line of L-1210

Compound: NCC1(CN)CCCCC1.O=C(O)c1ccc2c(c1)C(=O)[O][Pt][O]C2=O [Formula 15, Cis-4-carboxyphthalato-1,1-di(aminomethyl)-cyclohexane platinum (II)]
- T/C (period of survival, treated/untreated) ([1]; BDF1 mice, 40.00 mg/kg, one I.P. injection, 10^6 L1210 ascites cells): 200%

Compound: NCC1(CN)CCCCC1.O=S(=O)([O-])[O-].[Pt+2] [Formula 11, Cis-1,1-di(aminomethyl)cyclohexane platinum(II) sulphate]
- T/C (period of survival, treated/untreated) [1, 10]: 274%

Compound: CCC(CC)(CN)CN.O=S(=O)([O-])[O-].[Pt+2] [Formula 17, Cis-2,2-diethyl-1,3-propanediamine platinum(II) sulphate]
- T/C (period of survival, treated/untreated) ([1]; BDF1 mice, 12.00 mg/kg, one I.P. injection, 10^6 L1210 ascites cells): 200%
- cures (mice free of tumors 45 days after injection) ([2]; 6.00 mg/kg): 3/6
- T/C (period of survival, treated/untreated) ([2]; 6.00 mg/kg): > 500%
- effectiveness against the cis-PDD resistant line of L-1210 versus the parent line [2]: even more effective against the cis-PDD resistant line of L-1210 than they are against the parent line of L-1210

Compound: NCC1(CN)CCCC1.[Cl][Pt][Cl] [Formula 10, Cis-dichloro-1,1-di(aminomethyl)cyclopentane platinum(II)]
- T/C (period of survival, treated/untreated) [1, 10]: 148%

Compound: NCC1(CN)CCCCC1.[Cl][Pt][Cl] [Formula 4, Cis-dichloro-1,1-di(aminomethyl)cyclohexane platinum(II)]
- T/C (period of survival, treated/untreated) ([3]; 1.56 mg/kg per injection): 153%
- T/C (period of survival, treated/untreated) ([3]; 3.12 mg/kg per injection): 181%
- T/C (period of survival, treated/untreated) [3, 11]: 201%
- T/C (period of survival, treated/untreated) ([1]; CD2 F1 mice, 3.12 mg/kg per injection): 145%
- T/C (period of survival, treated/untreated) ([1]; CD2 F1 mice, 6.25 mg/kg per injection): 180%
- T/C (period of survival, treated/untreated) [1, 10]: 234%
- T/C (period of survival, treated/untreated) (ependymoblastoma (EM); C57BL/6 mice, 6.00 mg/kg per injection): 126%
- T/C (period of survival, treated/untreated) ([4]; 1.50 mg/kg per injection): 190%
- T/C (period of survival, treated/untreated) ([4]; 3.00 mg/kg per injection): 208%
- T/C (period of survival, treated/untreated) ([4]; 6.00 mg/kg per injection): 208%
- LD10 [5]: 8 mg/kg
- LD50 [5]: 15 mg/kg

Compound: NCC1(CN)CCCCC1.O=C1[O][Pt][O]C(=O)C1O [Formula 19, Cis-1,1-di(aminomethyl)cyclohexanehydroxymalonato platinum(II)]
- T/C (period of survival, treated/untreated) ([1]; BDF1 mice, 36.00 mg/kg, one I.P. injection, 10^6 L1210 ascites cells): 246%
- cures (mice free of tumors 45 days after injection) ([2]; 24.00 mg/kg): 3/6
- T/C (period of survival, treated/untreated) ([2]; 24.00 mg/kg): > 500%
- effectiveness against the cis-PDD resistant line of L-1210 versus the parent line [2]: even more effective against the cis-PDD resistant line of L-1210 than they are against the parent line of L-1210

Compound: NCC1(CN)CCCCC1.O=C1[O][Pt][O]C(=O)C12CCCCC2 [Formula 7, Cis-cyclopentamethylene malonato-1,1-di(aminomethyl)cyclohexane platinum(II)]
- T/C (period of survival, treated/untreated) [3, 11]: 162%
- T/C (period of survival, treated/untreated) ([3]; 12.50 mg/kg per injection): 177%
- T/C (period of survival, treated/untreated) ([3]; 25.00 mg/kg per injection): 226%
- T/C (period of survival, treated/untreated) ([1]; CD2 F1 mice, 80.00 mg/kg per injection): 138%
- T/C (period of survival, treated/untreated) (ependymoblastoma (EM); 57BL/6 mice, 6.25 mg/kg per injection): 130%
- T/C (period of survival, treated/untreated) (ependymoblastoma (EM); 57BL/6 mice, 12.50 mg/kg per injection): 163%

Compound: CCC(CC)(CN)CN.[Cl][Pt][Cl] [Formula 9, Cis-dichloro-2,2-diethyl-1,3-propane diamine platinum(II)]
- T/C (period of survival, treated/untreated) [1, 10]: 323%

Compound: cis-platinum diamine dichloride [PDD]
- T/C (period of survival, treated/untreated) ([1]; BDF1 mice, 8.00 mg/kg, one I.P. injection, 10^6 L1210 ascites cells): 183%
- T/C (period of survival, treated/untreated) ([4]; 2.00 mg/kg per injection): 197%
- T/C (period of survival, treated/untreated) ([2]; 4-8 mg/kg): 106-121%
- Percentage of urea-nitrogen in blood ([6]; 3 mg/kg (LD10), 0 days after injection): 10%
- Percentage of urea-nitrogen in blood ([6]; 3 mg/kg (LD10), 2 days after injection): 13%
- Percentage of urea-nitrogen in blood ([6]; 3 mg/kg (LD10), 4 days after injection): 52%
- Percentage of urea-nitrogen in blood ([6]; 7.6 mg/kg (LD50), 0 days after injection): 10%
- Percentage of urea-nitrogen in blood ([6]; 7.6 mg/kg (LD50), 2 days after injection): 78%
- Percentage of urea-nitrogen in blood ([6]; 7.6 mg/kg (LD50), 4 days after injection): 148%
- increase in the urea nitrogen content ([6]; LD10 dose, 4 days after injection): about a quadruple increase
- complete cures (mammalian types of tumor): not observed
- therapeutic index (cancer): low therapeutic index
- toxicity (cancer; treatment of cancer): Toxicity is a very serious drawback
- LD10 [5]: 3 mg/kg
- LD50 [5]: 7.6 mg/kg

Compound: NCC(CN)(Cc1ccccc1)Cc1ccccc1.[Cl][Pt][Cl] [Formula 13, Cis-dichloro-2,2-dibenzyl-1,3-propane diamine platinum(II)]
- T/C (period of survival, treated/untreated) [1, 9]: 135%

Compound: NCC1(CN)CCC1.[Cl-].[Cl-].[Pt+2] [Formula 12, Cis-dichloro-1,1-di(aminomethyl)cyclobutane platinum(II)]
- T/C (period of survival, treated/untreated) ([1]; BDF1 mice, 15.00 mg/kg, one I.P. injection, 10^6 L1210 ascites cells): 208%

Compound: NCC1(CN)CCCCC1.O=C(CCl)[O][Pt][O]C(=O)CCl [Formula 16, Cis-1,1-di(aminomethyl)-cyclohexane-bis(chloroacetato)platinum(II)]
- T/C (period of survival, treated/untreated) ([1]; BDF1 mice, 6.00 mg/kg, one I.P. injection, 10^6 L1210 ascites cells): 207%

Compound: cis-dichlorobiscyclopentyl amine platinum(II)
- kidney toxicity [7]: only slightly toxic to the kidneys
- spleen toxicity [8]: toxic to the spleen
